System: Tie2− tumor cells (LM2-4luc)
Experiment: MTS cell viability assay, tumor cells
Assay type: cell-based, human
Details: 48 h MTS; Supplementary Fig S2 (VT 0.1 to 1000 ng/mL)
Protocol: TCs were cultured in DMEM High Glucose basal media supplemented with 5% FBS and grown humidified incubators at 37 °C, 21%O2 and 5%CO2 unless otherwise specified. LM2-4 luc is a highly metastatically aggressive variant of the human breast carcinoma MDA-MB-231 cell line (derived through serial in vivo selection of lung metastases from orthotopic implantations in immunodeficient mice) that has been transfected with a firefly luciferase vector (Man et al, 2007; Ebos et al, 2009). HT29luc is a human colon carcinoma cell line also transfected with the luciferase gene (Hackl et al, 2013). SN12luc refers to a luciferase-tagged and highly metastatic clone of a human renal cell carcinoma cell line, SN12-PM6-L1luc (Jedeszko et al, 2015). MeWo is a human melanoma cell line (Ebos et al, 2009).
2. Endothelial cells (ECs) […]
5,000 LM2-4luc or HMVEC-LBl cells, in 100uL of their regular growth media, were seeded per well on a 96-well plate. […] Absorbances were read at 490nm and background-corrected with reference 560nm readings or acellular treatment-only […]
4. […] Protein concentrations in TC-CM vs. control media were measured using: a Quantikine ELISA kit (R&D Systems DVE00) for human VEGF; a FlowCytomix Multiplex kit (eBioscience BMS810FF) for human IL-6 and IL-8; and a BCA protein assay kit (Thermo Scientific) for total protein.

Sequence: CHHHRHSF [Vasculotide, 4-armed maleimide-functionalized polyethylene glycol (PEG) backbone to link together four cysteine-capped T7 peptides, that is, CHHHRHSF]
- cytotoxic effect on TCs / viability: no direct cytotoxic effect
